Patent EP1637163A1, “Indicator of therapeutic compliance” (priority 2004, dated 2006)

How the values were obtained:
[1] = Saliva test after ingestion of labelled substance (isotope content by mass spectrometry, δ-values); format: in vivo, human
Protocol: (§1) As a first step to test the feasibility of this approach, a self-experiment was conducted by the inventors. The aim was to obtain first data on the effect size, the pharmacokinetic data in various body fluids, and the variability between subjects. Single, large doses of the following substances were ingested by the subjects: ^13C6-glucose (1 g, two subjects) ^15N-L-leucine (1 g, two subjects) ^15N3-L-arginine (250 mg, one subject) ^15N4-L-histidine (250 mg, one subject) Baseline and follow-up samples were taken from the following body fluids: blood, saliva, and urine. These samples were dried, milled, burned, and analysed by mass spectrometry. […] Samples of exhaled breath were taken until 3 days after ingestion and analysed by IR-spectroscopy for ^13C/^12C-ratios.
(§2) Blood: Appr. 4 ml of venous blood were drawn and given into a thoroughly cleaned glass vial. The sample was frozen immediately at -18°C and stored at this temperature. Saliva: Saliva samples were obtained by letting the volunteers chew on "salivettes", i. e., cotton swabs, which were then centrifuged to extract saliva. The saliva samples were frozen at -18°C and stored at this temperature. […]
(§3) The isotopic composition was measured and compared to a standard. […] Samples of exhaled breath were taken until 3 days after ingestion and analysed by IR-spectroscopy for ^13C/^12C-ratios.

[2] = set-up: species or system human; settings: in vivo
Protocol: as §1, §2, §3

[3] = set-up: species or system human; settings: in vivo; remark: listed apart in the source
Protocol: As a first step to test the feasibility of this approach, a self-experiment was conducted by the inventors. The aim was to obtain first data on the effect size, the pharmacokinetic data in various body fluids, and the variability between subjects. Single, large doses of the following substances were ingested by the subjects: ^13C6-glucose (1 g, two subjects) ^15N-L-leucine (1 g, two subjects) ^15N3-L-arginine (250 mg, one subject) ^15N4-L-histidine (250 mg, one subject) Baseline and follow-up samples were taken from the following body fluids: blood, saliva, and urine. These samples were dried, milled, burned, and analysed by mass spectrometry. The results are given as δ-values, which are defined as follows: [formula] where rsample is the ratio of ^15N [^13C] over ^14N [[…]] in the sample, and rstandard is the ratio of ^15N [^13C] over ^14N [[…]] in a standard. Samples of exhaled breath were taken until 3 days after ingestion and analysed by IR-spectroscopy for ^13C/^12C-ratios. Glucose and leucine were ingested on day zero, while arginine and histidine were ingested on day 116.
Gas of the sample tubes was separated by freezing at -196°C (N2) and - 78°C(CO2), and let into a mass spectrometer (Finnigan Delta +XL) according to manufacturer's specifications. The isotopic composition was measured and compared to a standard. Results are given as δ-values, which are defined as follows: [formula] where rsample is the ratio of ^15N [^13C] over ^14N [[…]] in the sample, and rstandard is the ratio of ^15N [^13C] over ^14N [^13C] in a standard. Samples of exhaled breath were taken until 3 days after ingestion and analysed by IR-spectroscopy for ^13C/^12C-ratios. Glucose and leucine were ingested on day zero, while arginine and histidine were ingested on day 116.

[4] = Blood test after ingestion of labelled substance (isotope content by mass spectrometry, δ-values); format: in vivo, human
Protocol: as §1
Blood: Appr. 4 ml of venous blood were drawn and given into a thoroughly cleaned glass vial. The sample was frozen immediately at -18°C and stored at this temperature. Saliva: Saliva samples were obtained by letting the volunteers chew on "salivettes", i. e., cotton swabs, which were then centrifuged to extract saliva. The saliva samples were frozen at -18°C and stored at this temperature. Urine: Urine was given into glass vials and frozen and stored at -18°C. All samples were freezedried in vacuo at -70°C, and an appropriate amount of the resulting powder was given into Supremax glass tubes, together with an appropriate amount of copper oxide, evacuated, and sealed.
as §3

Question: Which results are given for `O[13CH2][13C@H]1O[13CH](O)[13C@H](O)[13C@@H](O)[13C@@H]1O` (stereo partly shown) [^13C6-glucose]?
Answer: effect size in saliva samples ([1]; saliva, single 1 g dose ingested, two subjects, relatively large variation): no significant effect size; relative amount of ^13C in urine: drop to normal levels [2]: ≤ 5 days; period over which measurements of ^13CO2 in expired breath are sensitive [3]: 1 to 2 days; period over which the relative content of ^13C (DOB = delta over baseline) rises [3]: 1 to 3 h; relative content of ^13C returns to baseline values [3]: 36 to 48 h; remaining effect size ([4]; blood, after about 50 hours after ingestion, disturbed by large variations): small; marked increase in ^13C-content (time after ingestion) ([4]; in vivo): approximately 6 hours; rapid decrease of ^13C-content until (time after ingestion) ([4]; in vivo): about 50 hours

Question: With `CC(C)C[C@H]([15NH2])C(=O)O` [^15N-L-leucine] as the compound, how does the “period after which δ-values in saliva are similar to urine-values” ([1]; in vivo) read?
Answer: ca. 1 week

Question: What about the “δ-^15N-values of urine: time after which the figure slowly returns to baseline values” [2] of the same compound?
Answer: approximately 5 days
